Several values for one entry are separate records, joined by “and”; a condition that tells them apart may be missing. Equal entries are not always repeated. Toxic doses and inconclusive results are not listed. Cut-off read from the data, not from the text of the source: active = T/C of 150% or more; inactive = T/C below 125%.
Tested on: L1210 leukemia ip in BDF1 mice, survival T/C
Test: NCI In Vivo Anticancer Drug Screen. Data for tumor model L1210 Leukemia (intraperitoneal) in B6D2F1 (BDF1) mice
Conditions: endpoint: mean survival time, higher = longer survival
How it was run: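 In this screen, tumor-bearing mice given compound are compared to those given vehicle, and their survival values are reported as a treated-to-control quotient.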

[1] = dose: 50.0 mg/kg/injection, schedule: Q01DX009 (ip), vehicle: saline
[2] = dose: 50.0 mg/kg/injection, schedule: Q04DX003 (ip), vehicle: saline
[3] = dose: 100.0 mg/kg/injection, schedule: Q01DX001 (ip), vehicle: saline
[4] = dose: 100.0 mg/kg/injection, schedule: Q04DX002 (ip), vehicle: saline
[5] = dose: 100.0 mg/kg/injection, schedule: Q04DX003 (ip), vehicle: saline
[6] = dose: 200.0 mg/kg/injection, schedule: Q01DX001 (ip), vehicle: saline
[7] = dose: 200.0 mg/kg/injection, schedule: Q04DX002 (ip), vehicle: saline
[8] = dose: 400.0 mg/kg/injection, schedule: Q01DX001 (ip), vehicle: saline
[9] = dose: 100.0 mg/kg/injection, schedule: Q04DX003 (ip), vehicle: saline with Tween-80
[10] = dose: 200.0 mg/kg/injection, schedule: Q04DX003 (ip), vehicle: saline with Tween-80
[11] = dose: 400.0 mg/kg/injection, schedule: Q04DX003 (ip), vehicle: saline with Tween-80
[12] = dose: 100.0 mg/kg/injection, schedule: Q04DX003 (ip), vehicle: Klucel (hydroxypropylcellulose) (HPC)
[13] = dose: 200.0 mg/kg/injection, schedule: Q04DX003 (ip), vehicle: Klucel (hydroxypropylcellulose) (HPC)
[14] = dose: 400.0 mg/kg/injection, schedule: Q04DX003 (ip), vehicle: Klucel (hydroxypropylcellulose) (HPC)
[15] = dose: 100.0 mg/kg/injection, schedule: Q04DX002 (ip), vehicle: Klucel (hydroxypropylcellulose) (HPC)
[16] = dose: 200.0 mg/kg/injection, schedule: Q04DX002 (ip), vehicle: Klucel (hydroxypropylcellulose) (HPC)

Measured: T/C

NOCCCCON
inactive: dose: 25.0 mg/kg/injection, schedule: Q01DX009 (ip), vehicle: saline 98 % of control and 103 % of control | dose: 25.0 mg/kg/injection, schedule: Q04DX002 (ip), vehicle: saline 93 % of control and 97 % of control | [1] 95 % of control and 97 % of control | dose: 50.0 mg/kg/injection, schedule: Q04DX002 (ip), vehicle: saline 96 % of control and 101 % of control | [2] 98 % of control | [3] 101 % of control | dose: 100.0 mg/kg/injection, schedule: Q01DX009 (ip), vehicle: saline 100 % of control [middle of 4 runs] | [4] 93 % of control and 94 % of control | [5] 95 % of control | [6] 102 % of control | dose: 200.0 mg/kg/injection, schedule: Q01DX009 (ip), vehicle: saline 95 % of control and 102 % of control | [7] 96 % of control and 105 % of control | dose: 200.0 mg/kg/injection, schedule: Q04DX003 (ip), vehicle: saline 93 % of control | [8] 104 % of control | dose: 400.0 mg/kg/injection, schedule: Q04DX002 (ip), vehicle: saline 98 % of control and 110 % of control

COC(=O)C1C2C=CC(C3CCC23)C1C(=O)OC (stereo not given)
inactive: [9] 92 % of control | [10] 91 % of control | [11] 94 % of control

CCOC(=O)N(OC(C)=O)P(=O)(N1CC1(C)C)N1CC1(C)C (stereo not given)
inactive: [4] 100 % of control | [7] 123 % of control

C#CCOC(C(=O)OC1CCN(C)CC1)(c1ccccc1)c1ccccc1
inactive: dose: 25.0 mg/kg/injection, schedule: Q04DX003 (ip), vehicle: saline 105 % of control | [2] 105 % of control | [5] 97 % of control and 98 % of control

CN(C)CC(=O)NCCCCCCCCCCNC(=O)CN(C)C
inactive: dose: 10.0 mg/kg/injection, schedule: Q01DX Z (ip), vehicle: saline 88 % of control | dose: 30.0 mg/kg/injection, schedule: Q01DX Z (ip), vehicle: saline 96 % of control | dose: 100.0 mg/kg/injection, schedule: Q01DX Z (ip), vehicle: saline 97 % of control | dose: 300.0 mg/kg/injection, schedule: Q01DX Z (ip), vehicle: saline 102 % of control

CN(N=O)C(=O)NCCOC(=O)N(C)N=O
inactive: dose: 6.25 mg/kg/injection, schedule: Q01DX Z (ip), vehicle: carboxymethylcellulose (CMC) 124 % of control | dose: 12.5 mg/kg/injection, schedule: Q01DX Z (ip), vehicle: carboxymethylcellulose (CMC) 124 % of control

CC(C)(CCN(CC(=O)O)CC(=O)O)[N+](=O)[O-]
inactive: [3] 112 % of control | [6] 96 % of control | [8] 102 % of control

Clc1ccc2c(c1)Cc1cc(Cl)cc(Cl)c1-2
inactive: [12] 98 % of control | [13] 100 % of control | [14] 96 % of control

CC1(C)COCOC1
inactive: dose: 50.0 mg/kg/injection, schedule: Q01DX009 (ip), vehicle: acetone 95 % of control | dose: 100.0 mg/kg/injection, schedule: Q01DX009 (ip), vehicle: acetone 98 % of control | dose: 200.0 mg/kg/injection, schedule: Q01DX009 (ip), vehicle: acetone 88 % of control

CCN(CC)Cc1ccccc1COC(=O)c1cccc(Br)c1
inactive: dose: 50.0 mg/kg/injection, schedule: Q04DX002 (ip), vehicle: Klucel (hydroxypropylcellulose) (HPC) 111 % of control | [15] 118 % of control | [16] 103 % of control

O=C(N/N=C/c1ccccc1)NNCc1ccccc1
inactive: dose: 100.0 mg/kg/injection, schedule: Q01DX001 (ip), vehicle: other 97 % of control | dose: 100.0 mg/kg/injection, schedule: Q04DX003 (ip), vehicle: other 111 % of control | dose: 200.0 mg/kg/injection, schedule: Q01DX001 (ip), vehicle: other 97 % of control | dose: 200.0 mg/kg/injection, schedule: Q04DX003 (ip), vehicle: other 101 % of control | dose: 400.0 mg/kg/injection, schedule: Q01DX001 (ip), vehicle: other 104 % of control | dose: 400.0 mg/kg/injection, schedule: Q04DX003 (ip), vehicle: other 86 % of control

CC(=N\O)/C(=N\O)C(=O)c1ccccc1
inactive: dose: 100.0 mg/kg/injection, schedule: Q01DX009 (ip), vehicle: saline with Tween-80 110 % of control | [9] 96 % of control | dose: 200.0 mg/kg/injection, schedule: Q01DX009 (ip), vehicle: saline with Tween-80 95 % of control | [10] 101 % of control | [11] 98 % of control

CCCCCCCCCC(=O)OCC(COC(=O)CCCCCCCCC)OC(=O)CCCCCCCCC
inactive: dose: 100.0 mg/kg/injection, schedule: Q01DX009 (sc), vehicle: olive oil, sesame oil, peanut oil 103 % of control | dose: 100.0 mg/kg/injection, schedule: Q04DX003 (sc), vehicle: olive oil, sesame oil, peanut oil 101 % of control | dose: 200.0 mg/kg/injection, schedule: Q01DX009 (sc), vehicle: olive oil, sesame oil, peanut oil 101 % of control | dose: 200.0 mg/kg/injection, schedule: Q04DX003 (sc), vehicle: olive oil, sesame oil, peanut oil 97 % of control | dose: 400.0 mg/kg/injection, schedule: Q01DX009 (sc), vehicle: olive oil, sesame oil, peanut oil 104 % of control | dose: 400.0 mg/kg/injection, schedule: Q04DX003 (sc), vehicle: olive oil, sesame oil, peanut oil 104 % of control

N#CC(C#N)=Cc1csc2ccccc12
inactive: [3] 93 % of control | [6] 102 % of control | [8] 102 % of control

CSc1ccc(OC(=O)Nc2ccc(Cl)cc2)cc1C
inactive: dose: 100.0 mg/kg/injection, schedule: Q01DX001 (ip), vehicle: carboxymethylcellulose (CMC) 89 % of control | dose: 100.0 mg/kg/injection, schedule: Q01DX009 (ip), vehicle: carboxymethylcellulose (CMC) 97 % of control and 100 % of control | [15] 103 % of control | dose: 100.0 mg/kg/injection, schedule: Q04DX002 (ip), vehicle: carboxymethylcellulose (CMC) 106 % of control and 108 % of control | dose: 200.0 mg/kg/injection, schedule: Q01DX001 (ip), vehicle: carboxymethylcellulose (CMC) 102 % of control | dose: 200.0 mg/kg/injection, schedule: Q01DX009 (ip), vehicle: carboxymethylcellulose (CMC) 93 % of control and 97 % of control | [16] 98 % of control | dose: 200.0 mg/kg/injection, schedule: Q04DX002 (ip), vehicle: carboxymethylcellulose (CMC) 94 % of control and 108 % of control | dose: 400.0 mg/kg/injection, schedule: Q01DX001 (ip), vehicle: carboxymethylcellulose (CMC) 93 % of control | dose: 400.0 mg/kg/injection, schedule: Q04DX002 (ip), vehicle: Klucel (hydroxypropylcellulose) (HPC) 92 % of control | dose: 400.0 mg/kg/injection, schedule: Q04DX002 (ip), vehicle: carboxymethylcellulose (CMC) 95 % of control and 104 % of control

Cc1ccc(C)c(NC(=O)Nc2ccc(Nc3ccccc3)cc2)c1
inactive: dose: 100.0 mg/kg/injection, schedule: Q01DX009 (ip), vehicle: Klucel (hydroxypropylcellulose) (HPC) 88 % of control | dose: 400.0 mg/kg/injection, schedule: Q01DX009 (ip), vehicle: Klucel (hydroxypropylcellulose) (HPC) 91 % of control

OCn1cnc2c(SC3CCCC3)ncnc21
active: dose: 88.0 mg/kg/injection, schedule: Q01DX009 (ip), vehicle: Klucel (hydroxypropylcellulose) (HPC) 154 % of control | dose: 120.0 mg/kg/injection, schedule: Q01DX015 (ip), vehicle: saline 153 % of control | dose: 180.0 mg/kg/injection, schedule: Q01DX009 (ip), vehicle: other 152 % of control | dose: 180.0 mg/kg/injection, schedule: Q01DX015 (ip), vehicle: saline 161 % of control
inactive: dose: 35.0 mg/kg/injection, schedule: Q01DX015 (ip), vehicle: saline 114 % of control | [1] 112 % of control | dose: 50.0 mg/kg/injection, schedule: Q01DX015 (ip), vehicle: saline 123 % of control | dose: 80.0 mg/kg/injection, schedule: Q01DX009 (ip), vehicle: saline 119 % of control | [3] 88 % of control | [6] 104 % of control | dose: 200.0 mg/kg/injection, schedule: Q01DX009 (ip), vehicle: Klucel (hydroxypropylcellulose) (HPC) 92 % of control | dose: 270.0 mg/kg/injection, schedule: Q01DX015 (ip), vehicle: saline 113 % of control | [8] 111 % of control

CCOC(=O)C1(C(=O)OCC)CCC(O)N1C(=O)Cc1ccccc1[N+](=O)[O-] (stereo not given)
inactive: [12] 100 % of control | [13] 103 % of control | [14] 99 % of control
